Assay results reported in patent publication EP0912571B1, “NAPHTHYRIDINES WHICH AFFECT IL-4 AND G-CSF” (SCHERING CORPORATION, priority 1996, dated 1997).

Legend:
human G-CSF production = experiment: In vitro enhancement of G-CSF production in PHA-stimulated PBMNC's (ELISA of culture supernatant); assay type: cell-based; conditions: PBMNC's with 5µg/ml PHA
Description: (§1) In order to determine the effect of compound AA on human G-CSF production, human peripheral blood mononuclear cells (PBMNC's) were prepared (as described in Ficoll-Paque: For in vitro isolation of lymphocytes (booklet) 1983 Pharmacia, Uppsala Sweden; which is hereby incorporated by reference) and cultured as described (in Oster et al, 1989 Blood 73:64. which is hereby incorporated by reference) with 5µg/ml phytohemagglutin (PHA) in the presence of varying concentrations of compound AA or vehicle (0.1% dimethylsulfoxide, DMSO). After 40 hours, culture supernatant was collected and cytokine levels measured by ELISA (R&D Systems, Minneapolis MN). Alternatively mRNA was prepared by standard protocols from these cells after 24 hour incubation, reverse-transcribed and subjected to polymerase chain reaction (PCR)

[1] = test system: mice made neutropenic with CY; experiment: Comparison of compound AA with rhG-CSF in the CY neutropenia model; assay type: in vivo; conditions: compound AA at 40mg/kg daily, granulocyte levels in peripheral blood on day 5
Description: Exogeneous G-CSF administration is now standard therapy for patients undergoing a neutropenic episode In order to compare compound AA treatment with G-CSF therapy in the CY model described above, we administered either compound AA or recombinant human G-CSF daily to mice made neutropenic with CY. Granulocyte levels in peripheral blood were determined on day 5.

BALB/cJ mice = experiment: In vivo acceleration of recovery from neutropenia in cyclophosphamide-treated mice (flow cytometry of granulocytes); conditions: for granulocyte recovery: return to normal numbers: 40 mg/kg daily from day 1 after single sublethal dose of CY on day 0
Description: To test the activity of compound AA in enhancing peripheral neutrophil numbers and accelerating recovery of the neutrophil compartment, BALB/cJ mice were rendered neutropenic by treatment with a single sublethal dose of CY on day 0. Mice were then treated daily, starting on day 1, with 40 mg/kg compound AA or vehicle (carboxymethyl cellulose CMC) and sacrificed on days 3, 5, 6, 8 or 10 and granulocyte populations in peripheral blood and spleen analyzed by flow cytometry. Granulocytes were detected using the RB6-8C5 antibody, specific for granulocytes (see Hestdal et al 1991 J. Immunol. 147:22. which is hereby incorporated by reference) and the Mac-1 antibody, specific for myeloid cells (see Springer et al JEur. J. lmmunol. 9: 301). […] Compound AA administration accelerated granulocyte recovery in both blood and spleen, with a return to normal numbers by day 5 in blood and day 4 in spleen. These granulocytes were confirmed to be exclusively segmented neutrophils by cytological examination. Neutrophil recovery was delayed by 1-2 days in CY-dosed mice given vehicle, compared to compound AA - treated animals. No changes in percentage or number of monocytes were observed.

[2] = test system: bone marrow steady-state G-CSF mRNA; experiment: Endogenous G-CSF in CY-dosed mice: bone marrow steady-state G-CSF mRNA by PCR; assay type: in vivo; conditions: CY-dosed mice administered compound AA
Description: Acceleration of neutrophil recovery by compound AA may occur by stimulating neutrophil development at the level of the bone marrow (see Demetri et al 1991 Blood 78: 2791).To confirm that compound AA was acting in vivo by enhancing endogenous G-CSF production, bone marrow steady-state G-CSF mRNA levels were determined by PCR.

[3] = test system: TNFα, TNFβ, IL-1α, IL-1 β, IL-3, IL-6, IL-8, or GM-CSF; experiment: Specificity: production of other cytokines in the PBMNC culture (ELISA); assay type: cell-based, human; conditions: PHA-stimulated PBMNC's
Description: as §1
This effect was specific for G-CSF, since no change in the production of TNFα, TNFβ, IL-1α, IL-1 β, IL-3, IL-6, IL-8, or GM-CSF was observed.

G-CSF mRNA = experiment: Steady-state G-CSF mRNA levels in stimulated cell cultures (reverse transcription, PCR); assay type: cell-based, human
[4] = 40 mg/kg daily, CY-treated mice

CC(=O)Nc1ccc(S(=O)(=O)Nc2nc(-c3ncccc3C)cc3cccnc23)cc1 [compound AA]
EC50 (human G-CSF production; Homo sapiens, G-CSF levels, 40 hours, read-out: effective concentration50 (EC50)): 15 µM
increase in G-CSF levels (human G-CSF production; supernatant after 40 hours, ELISA): 4-5 fold
ability to enhance peripheral blood neutrophil numbers versus 250mg/kg rhG-CSF [1]: comparable
ability to enhance peripheral blood neutrophil numbers versus 50-125mg/kg rhG-CSF [1]: greater
delay of neutrophil recovery in CY-dosed mice given vehicle, compared to compound AA-treated animals (BALB/cJ mice; 40 mg/kg daily): 1 to 2 days
changes in percentage or number of monocytes (BALB/cJ mice; [4]): No changes
gross toxicity or abnormalities (BALB/cJ mice; [4]): No evidence of gross toxicity or abnormalities
granulocyte recovery: return to normal numbers (BALB/cJ mice; blood): ≤ 5 days
granulocyte recovery: return to normal numbers (BALB/cJ mice; spleen): ≤ 4 days
bone marrow G-CSF mRNA levels [2]: enhanced
change in the production of TNFα, TNFβ, IL-1α, IL-1 β, IL-3, IL-6, IL-8, or GM-CSF [3]: no change
Steady-state G-CSF mRNA levels (G-CSF mRNA; LPS-stimulated monocytes): increased
Steady-state G-CSF mRNA levels (G-CSF mRNA; PHA-stimulated PBMNC's): increased
